Earlier results in patent US20080124386A1, “APOPTOSIS-MIMICKING SYNTHETIC ENTITIES AND USE THEREOF IN MEDICAL TREATMENT” (Vasogen Ireland Limited, priority 2000, published 2008).

What was measured:
spatial memory = conditions: oral, 50 mg/day; compared with placebo
Alzheimer's disease = conditions: oral, 300 mg/day; compared with placebo

phosphatidylserine [PS]
spatial memory in animal models (spatial memory): statistically significant improvements
treatment of Alzheimer's disease in humans (Alzheimer's disease): statistically significant improvements
